Assay results as given in ChEMBL document CHEMBL6109142 (J Med Chem, 2025).
The source made the active and inactive calls. The rule behind the calls is not given here.

Molecular target: Procathepsin L (Homo sapiens, UniProt P07711)
Test: Inhibition of recombinant human C-terminal 6 his-tagged Cathepsin L assessed as inhibition constant using Z-LR-AMC as peptide substrate incubated for 1 hr by fluorescence based analysis
Conditions: not given

Procathepsin L, sequence (P07711 114-333 limits assumed): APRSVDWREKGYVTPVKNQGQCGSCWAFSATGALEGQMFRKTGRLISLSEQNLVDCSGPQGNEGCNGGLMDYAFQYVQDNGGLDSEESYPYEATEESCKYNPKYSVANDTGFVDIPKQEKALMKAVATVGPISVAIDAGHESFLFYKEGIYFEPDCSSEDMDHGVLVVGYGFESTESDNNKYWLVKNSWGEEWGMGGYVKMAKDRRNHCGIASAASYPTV

Compound	inhibition
COCCC(=O)N[C@@H](CCC(N)=O)C(=O)N[C@@H](Cc1ccccc1)C(=O)N[C@@H](CCCNC(=N)N)C(=O)c1nc2ccccc2s1	inactive

System: SARS-CoV-2
Test: Antiviral activity against SARS-CoV-2 EG.5.1 infected in human Calu-3 cells assessed as reduction in residual intracellular nucleocapsid value at 1 uM preincubated with cells for 3 hrs followed by viral infection and measured after 48 hrs by immunostaining based analysis relative to control
Assay type: functional, Severe acute respiratory syndrome coronavirus 2
Conditions: time 51 hrs

Compound	Activity
N=C(N)NCCCCC(=O)N[C@@H](CCC(N)=O)C(=O)N[C@@H](Cc1ccccc1)C(=O)N[C@@H](CCCNC(=N)N)C(=O)c1nccs1	14%

System: SARS-CoV-2
Test: Antiviral activity against SARS-CoV-2 EG.5.1 infected in human Calu-3 cells assessed as reduction in residual intracellular nucleocapsid value at 1 uM preincubated with cells for 3 hrs followed by viral infection and measured after 48 hrs by immunostaining based analysis
Assay type: functional, organism-based
Conditions: Severe acute respiratory syndrome coronavirus 2, time 51.0 hrs

Compound	Activity
N=C(N)NCCCCC(=O)N[C@@H](CCC(N)=O)C(=O)N[C@@H](Cc1ccccc1)C(=O)N[C@@H](CCCNC(=N)N)C(=O)c1nccs1	Active
COCCC(=O)N[C@@H](CCC(N)=O)C(=O)N[C@@H](Cc1ccccc1)C(=O)N[C@@H](CCCNC(=N)N)C(=O)c1nc2ccccc2s1	Active

System: SARS-CoV-2
Test: Antiviral activity against SARS-CoV-2 JN.1 infected in human Calu-3 cells preincubated with cells for 3 hrs followed by viral infection and measured after 48 hrs by immunostaining based analysis
Assay type: functional, organism-based
Conditions: Severe acute respiratory syndrome coronavirus 2, JN.1, Calu-3

Compound	EC50
CN(C)C(=O)COC(=O)Cc1ccc(OC(=O)c2ccc(NC(=N)N)cc2)cc1 [CAMOSTAT]	7.5 nM
COCCC(=O)N[C@@H](CCC(N)=O)C(=O)N[C@@H](Cc1ccccc1)C(=O)N[C@@H](CCCNC(=N)N)C(=O)c1nc2ccccc2s1	1.5 nM

System: SARS-CoV-2
Test: Antiviral activity against SARS-CoV-2 pseudotyped with delta spike protein infected in human Calu-3 cells assessed as prevention of virus-like particle cellular entry at 300 nM preincubated with cells for 3 hrs followed by viral infection and measured after 72 hrs by ONE-Glo-Ex luciferase assay relative to control
Assay type: functional, Severe acute respiratory syndrome coronavirus 2
Conditions: time 75 hrs

Compound	Activity
N=C(N)NCCCCC(=O)N[C@@H](CCC(N)=O)C(=O)N[C@@H](Cc1ccccc1)C(=O)N[C@@H](CCCNC(=N)N)C(=O)c1nccs1	20%
COCCC(=O)N[C@@H](CCC(N)=O)C(=O)N[C@@H](Cc1ccccc1)C(=O)N[C@@H](CCCNC(=N)N)C(=O)c1nc2ccccc2s1	17%

System: SARS-CoV-2
Test: Antiviral activity against SARS-CoV-2 pseudotyped with delta spike protein infected in human Calu-3 cells assessed as prevention of virus-like particle cellular entry at 300 nM preincubated with cells for 3 hrs followed by viral infection and measured after 72 hrs by ONE-Glo-Ex luciferase assay
Assay type: functional, organism-based
Conditions: Severe acute respiratory syndrome coronavirus 2, time 75.0 hrs

Compound	Activity
CC(=O)N[C@@H](CCC(N)=O)C(=O)N[C@@H](Cc1ccccc1)C(=O)N[C@@H](CCCNC(=N)N)C(=O)CN1CCCCC1	Active
CC(=O)N[C@@H](CCC(N)=O)C(=O)N[C@@H](Cc1ccccc1)C(=O)N[C@@H](CCCNC(=N)N)C(=O)c1nccn1C	Active
CC(=O)N[C@@H](CCC(N)=O)C(=O)N[C@@H](Cc1ccccc1)C(=O)N[C@@H](CCCNC(=N)N)C(=O)c1nc2ccccc2[nH]1	Active

System: Calu-3
Test: Cytotoxicity against human Calu-3 cells assessed as cell viability at 10 uM measured after 72 hrs by luminescence based Cell-Titer-Glo assay
Assay type: toxicity
Conditions: calu-3, 72 h

Compound	Activity
N=C(N)NCCCCC(=O)N[C@@H](CCC(N)=O)C(=O)N[C@@H](Cc1ccccc1)C(=O)N[C@@H](CCCNC(=N)N)C(=O)c1nccs1	Non-toxic
COCCC(=O)N[C@@H](CCC(N)=O)C(=O)N[C@@H](Cc1ccccc1)C(=O)N[C@@H](CCCNC(=N)N)C(=O)c1nc2ccccc2s1	Non-toxic

Molecular target: T1, Transmembrane protease serine 2 (Homo sapiens, UniProt O15393)
Test: Inhibition of recombinant TMPRSS2 (unknown origin) extracted from baculovirus infected in Sf9 cells assessed as residual activity using Boc-QAR-AMC as substrate at 1 nM measured after 1 hr by fluorescence based analysis relative to control
Conditions: not given

T1 sequence (O15393 1-255 limits assumed): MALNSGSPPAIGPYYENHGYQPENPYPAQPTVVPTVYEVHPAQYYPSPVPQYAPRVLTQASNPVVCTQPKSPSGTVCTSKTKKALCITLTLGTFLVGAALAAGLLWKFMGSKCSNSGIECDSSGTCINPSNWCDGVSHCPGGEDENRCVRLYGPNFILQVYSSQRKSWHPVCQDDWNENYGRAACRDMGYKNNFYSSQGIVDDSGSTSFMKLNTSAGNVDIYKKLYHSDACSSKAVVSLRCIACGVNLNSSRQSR
T1 sequence (O15393 256-492 limits assumed): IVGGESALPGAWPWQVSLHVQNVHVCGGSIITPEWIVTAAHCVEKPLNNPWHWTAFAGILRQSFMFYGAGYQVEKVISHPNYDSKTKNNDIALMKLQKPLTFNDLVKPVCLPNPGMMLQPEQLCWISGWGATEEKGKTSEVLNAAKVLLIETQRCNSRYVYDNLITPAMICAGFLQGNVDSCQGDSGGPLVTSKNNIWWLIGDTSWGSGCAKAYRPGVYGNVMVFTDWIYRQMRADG

Compound	Activity
N=C(N)NCCCCC(=O)N[C@@H](CCC(N)=O)C(=O)N[C@@H](Cc1ccccc1)C(=O)N[C@@H](CCCNC(=N)N)C(=O)c1nccs1	20%
COCCC(=O)N[C@@H](CCC(N)=O)C(=O)N[C@@H](Cc1ccccc1)C(=O)N[C@@H](CCCNC(=N)N)C(=O)c1nc2ccccc2s1	2%

System: SARS-CoV-2
Test: Antiviral activity against SARS-CoV-2 EG.5.1 infected in human Calu-3 cells preincubated with cells for 3 hrs followed by viral infection and measured after 48 hrs by immunostaining based analysis
Assay type: functional, organism-based
Conditions: Severe acute respiratory syndrome coronavirus 2, EG.5.1, Calu-3

Compound	EC50
CN(C)C(=O)COC(=O)Cc1ccc(OC(=O)c2ccc(NC(=N)N)cc2)cc1 [CAMOSTAT]	201 nM
COCCC(=O)N[C@@H](CCC(N)=O)C(=O)N[C@@H](Cc1ccccc1)C(=O)N[C@@H](CCCNC(=N)N)C(=O)c1nc2ccccc2s1	4.1 nM

Molecular target: Coagulation factor X (Homo sapiens, UniProt P00742)
Test: Inhibition of recombinant human C-terminal 10 his-tagged FXa extracted from baculovirus infected in Sf9 cells assessed as inhibition constant using Mca-RPKPVE-Nval-WRK(Dnp)-NH2 as substrate incubated for 1 hr by fluorescence based analysis
Conditions: not given

Coagulation factor X, sequence (P00742 41-179 limits assumed): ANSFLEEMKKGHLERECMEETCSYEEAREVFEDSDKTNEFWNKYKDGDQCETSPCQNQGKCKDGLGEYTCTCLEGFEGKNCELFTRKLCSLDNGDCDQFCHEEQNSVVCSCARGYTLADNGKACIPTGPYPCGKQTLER
Coagulation factor X, sequence (P00742 235-488 limits assumed): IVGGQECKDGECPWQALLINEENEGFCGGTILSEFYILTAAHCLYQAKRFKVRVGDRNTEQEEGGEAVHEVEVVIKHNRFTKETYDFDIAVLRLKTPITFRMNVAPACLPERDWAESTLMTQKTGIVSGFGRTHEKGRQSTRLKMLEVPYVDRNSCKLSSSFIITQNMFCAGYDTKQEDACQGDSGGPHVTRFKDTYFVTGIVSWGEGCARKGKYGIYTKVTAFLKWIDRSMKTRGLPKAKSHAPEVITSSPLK

Compound	Ki
COCCC(=O)N[C@@H](CCC(N)=O)C(=O)N[C@@H](Cc1ccccc1)C(=O)N[C@@H](CCCNC(=N)N)C(=O)c1nc2ccccc2s1	102 nM

Molecular target: T1, Transmembrane protease serine 2
Test: Inhibition of recombinant TMPRSS2 (unknown origin) extracted from baculovirus infected in Sf9 cells using Boc-QAR-AMC as substrate measured after 1 hr by fluorescence based analysis
Conditions: not given

Compound	IC50
N=C(N)NCCCCC(=O)N[C@@H](CCC(N)=O)C(=O)N[C@@H](Cc1ccccc1)C(=O)N[C@@H](CCCNC(=N)N)C(=O)c1nccs1	0.74 nM
COCCC(=O)N[C@@H](CCC(N)=O)C(=O)N[C@@H](Cc1ccccc1)C(=O)N[C@@H](CCCNC(=N)N)C(=O)c1nc2ccccc2s1	0.59 nM

System: not listed separately
Test: Cytotoxicity against human Calu-3 cells assessed as cell viability measured after 72 hrs by luminescence based Cell-Titer-Glo assay
Assay type: toxicity
Conditions: not given

Compound	CC50 at 72 h
CN(C)C(=O)COC(=O)Cc1ccc(OC(=O)c2ccc(NC(=N)N)cc2)cc1 [CAMOSTAT]	110000 nM
